Test results reported in the NIST ThermoML archive (doi:10.1021/je100638g).
Numbers after ± are expanded uncertainties.

Tests used:
[1] = for mass density / viscosity: 100 kPa, Liquid; for Normal melting temperature: Crystal, DTA
[2] = Molar enthalpy of transition or fusion; details: Crystal; DSC
[3] = xn = mol fraction of the nth substance listed; details: 100 kPa, Liquid

CCCn1cc[n+](C)c1.F[P-](F)(F)(F)(F)F [1-methyl-3-propylimidazolium hexafluorophosphate]
mass density ([1]; 318.15 K): 1397.5 ± 3.4 kg/m3
viscosity ([1]; 318.15 K): 85.01 ± 6.3 mPa·s
mass density ([1]; 323.15 K): 1393.2 ± 3.3 kg/m3
viscosity ([1]; 323.15 K): 68.18 ± 3 mPa·s
mass density ([1]; 328.15 K): 1389 ± 3.3 kg/m3
viscosity ([1]; 328.15 K): 55.46 ± 0.98 mPa·s
mass density ([1]; 333.15 K): 1384.7 ± 3.3 kg/m3
viscosity ([1]; 333.15 K): 45.7 ± 1.5 mPa·s
mass density ([1]; 338.15 K): 1380.5 ± 3.3 kg/m3
viscosity ([1]; 338.15 K): 38.09 ± 1.3 mPa·s
mass density ([1]; 343.15 K): 1376.3 ± 3.2 kg/m3
viscosity ([1]; 343.15 K): 32.1 ± 1.1 mPa·s
mass density ([1]; 348.15 K): 1372.1 ± 3.2 kg/m3
viscosity ([1]; 348.15 K): 27.32 ± 0.93 mPa·s
mass density ([1]; 353.15 K): 1367.9 ± 3.2 kg/m3
viscosity ([1]; 353.15 K): 23.47 ± 0.81 mPa·s
mass density ([1]; 358.15 K): 1363.8 ± 3.1 kg/m3
viscosity ([1]; 358.15 K): 20.34 ± 0.71 mPa·s
mass density ([1]; 363.15 K): 1359.6 ± 3.1 kg/m3
viscosity ([1]; 363.15 K): 17.77 ± 0.63 mPa·s
Normal melting temperature [1]: 38.5 ± 0.5 °C
Molar enthalpy of transition or fusion [2]: 3.99 ± 0.12 kcal/mol

CCCn1cc[n+](C)c1.F[P-](F)(F)(F)(F)F [1-methyl-3-propylimidazolium hexafluorophosphate] + O
mass density ([3]; 303.15 K, x2 = 0.306): 1389.2 ± 3.3 kg/m3
viscosity ([3]; 303.15 K, x2 = 0.306): 39.41 ± 1.3 mPa·s
mass density ([3]; 308.15 K, x2 = 0.306): 1384.7 ± 3.3 kg/m3
viscosity ([3]; 308.15 K, x2 = 0.306): 32.25 ± 1.1 mPa·s
mass density ([3]; 313.15 K, x2 = 0.306): 1380.2 ± 3.3 kg/m3
viscosity ([3]; 313.15 K, x2 = 0.306): 26.84 ± 0.92 mPa·s
mass density ([3]; 318.15 K, x2 = 0.306): 1375.7 ± 3.2 kg/m3
viscosity ([3]; 318.15 K, x2 = 0.306): 22.61 ± 0.78 mPa·s
mass density ([3]; 323.15 K, x2 = 0.306): 1371.3 ± 3.2 kg/m3
viscosity ([3]; 323.15 K, x2 = 0.306): 19.29 ± 0.67 mPa·s
mass density ([3]; 328.15 K, x2 = 0.306): 1366.9 ± 3.2 kg/m3
viscosity ([3]; 328.15 K, x2 = 0.306): 16.58 ± 0.59 mPa·s
mass density ([3]; 333.15 K, x2 = 0.306): 1362.5 ± 3.2 kg/m3
viscosity ([3]; 333.15 K, x2 = 0.306): 14.39 ± 0.52 mPa·s
mass density ([3]; 338.15 K, x2 = 0.306): 1358.1 ± 3.1 kg/m3
viscosity ([3]; 338.15 K, x2 = 0.306): 12.61 ± 0.46 mPa·s
mass density ([3]; 343.15 K, x2 = 0.306): 1353.8 ± 3.1 kg/m3
viscosity ([3]; 343.15 K, x2 = 0.306): 11.13 ± 0.41 mPa·s
mass density ([3]; 348.15 K, x2 = 0.306): 1349.4 ± 3.1 kg/m3
viscosity ([3]; 348.15 K, x2 = 0.306): 9.905 ± 0.37 mPa·s
mass density ([3]; 353.15 K, x2 = 0.306): 1345.1 ± 3.1 kg/m3
viscosity ([3]; 353.15 K, x2 = 0.306): 8.874 ± 0.34 mPa·s
mass density ([3]; 358.15 K, x2 = 0.306): 1340.8 ± 3 kg/m3
viscosity ([3]; 358.15 K, x2 = 0.306): 7.983 ± 0.31 mPa·s
mass density ([3]; 363.15 K, x2 = 0.306): 1336.5 ± 3 kg/m3
viscosity ([3]; 363.15 K, x2 = 0.306): 7.228 ± 0.29 mPa·s

CCCc1ccc[n+](C)c1.F[P-](F)(F)(F)(F)F [1-methyl-3-propylpyridinium hexafluorophosphate]
mass density ([1]; 318.15 K): 1365.4 ± 3.2 kg/m3
viscosity ([1]; 318.15 K): 132.87 ± 18 mPa·s
mass density ([1]; 323.15 K): 1361.3 ± 3.1 kg/m3
viscosity ([1]; 323.15 K): 102.17 ± 10 mPa·s
mass density ([1]; 328.15 K): 1357.3 ± 3.1 kg/m3
viscosity ([1]; 328.15 K): 79.97 ± 5.3 mPa·s
mass density ([1]; 333.15 K): 1353.2 ± 3.1 kg/m3
viscosity ([1]; 333.15 K): 63.67 ± 2.2 mPa·s
mass density ([1]; 338.15 K): 1349.2 ± 3 kg/m3
viscosity ([1]; 338.15 K): 51.52 ± 0.65 mPa·s
mass density ([1]; 343.15 K): 1345.2 ± 3 kg/m3
viscosity ([1]; 343.15 K): 42.29 ± 1.4 mPa·s
mass density ([1]; 348.15 K): 1341.2 ± 3 kg/m3
viscosity ([1]; 348.15 K): 35.16 ± 1.2 mPa·s
mass density ([1]; 353.15 K): 1337.2 ± 3 kg/m3
viscosity ([1]; 353.15 K): 29.58 ± 1 mPa·s
mass density ([1]; 358.15 K): 1333.2 ± 2.9 kg/m3
viscosity ([1]; 358.15 K): 25.15 ± 0.86 mPa·s
mass density ([1]; 363.15 K): 1329.2 ± 2.9 kg/m3
viscosity ([1]; 363.15 K): 21.59 ± 0.75 mPa·s
Normal melting temperature [1]: 38.1 ± 0.5 °C
Molar enthalpy of transition or fusion [2]: 3.59 ± 0.12 kcal/mol

CCCc1ccc[n+](C)c1.F[P-](F)(F)(F)(F)F [1-methyl-3-propylpyridinium hexafluorophosphate] + O
mass density ([3]; 303.15 K, x2 = 0.249): 1362.5 ± 3.5 kg/m3
viscosity ([3]; 303.15 K, x2 = 0.249): 73.39 ± 4 mPa·s
mass density ([3]; 308.15 K, x2 = 0.249): 1358.3 ± 3.4 kg/m3
viscosity ([3]; 308.15 K, x2 = 0.249): 57.55 ± 1.3 mPa·s
mass density ([3]; 313.15 K, x2 = 0.249): 1354 ± 3.4 kg/m3
viscosity ([3]; 313.15 K, x2 = 0.249): 45.98 ± 1.6 mPa·s
mass density ([3]; 318.15 K, x2 = 0.249): 1349.8 ± 3.4 kg/m3
viscosity ([3]; 318.15 K, x2 = 0.249): 37.36 ± 1.3 mPa·s
mass density ([3]; 323.15 K, x2 = 0.249): 1345.6 ± 3.3 kg/m3
viscosity ([3]; 323.15 K, x2 = 0.249): 30.81 ± 1.1 mPa·s
mass density ([3]; 328.15 K, x2 = 0.249): 1341.4 ± 3.3 kg/m3
viscosity ([3]; 328.15 K, x2 = 0.249): 25.75 ± 0.89 mPa·s
mass density ([3]; 333.15 K, x2 = 0.249): 1337.2 ± 3.3 kg/m3
viscosity ([3]; 333.15 K, x2 = 0.249): 21.76 ± 0.76 mPa·s
mass density ([3]; 338.15 K, x2 = 0.249): 1333.1 ± 3.3 kg/m3
viscosity ([3]; 338.15 K, x2 = 0.249): 18.6 ± 0.65 mPa·s
mass density ([3]; 343.15 K, x2 = 0.249): 1328.9 ± 3.2 kg/m3
viscosity ([3]; 343.15 K, x2 = 0.249): 16.04 ± 0.57 mPa·s
mass density ([3]; 348.15 K, x2 = 0.249): 1324.8 ± 3.2 kg/m3
viscosity ([3]; 348.15 K, x2 = 0.249): 13.98 ± 0.5 mPa·s
mass density ([3]; 353.15 K, x2 = 0.249): 1320.7 ± 3.2 kg/m3
viscosity ([3]; 353.15 K, x2 = 0.249): 12.28 ± 0.45 mPa·s
mass density ([3]; 358.15 K, x2 = 0.249): 1316.6 ± 3.2 kg/m3
viscosity ([3]; 358.15 K, x2 = 0.249): 10.86 ± 0.4 mPa·s
mass density ([3]; 363.15 K, x2 = 0.249): 1312.5 ± 3.1 kg/m3
viscosity ([3]; 363.15 K, x2 = 0.249): 9.677 ± 0.37 mPa·s
